Test results: patent publication US12304890B2, “R-type pyridyloxycarboxylic acid, salt and ester derivative thereof, and preparation method therefor, and herbicidal composition and application thereof” (Qingdao Kingagroot Chemical Compound Co., Ltd., priority 2018, dated 2025)

Experiments:
Type in all cases: in vivo
[1] = system: Monocotyledonous and dicotyledonous weed seeds and main crop seeds; experiment: Post-emergence test experiment, other weeds and crops (Table 4, 1000 g a.i./ha); settings: 3 weeks in greenhouse, fresh weight inhibition
Method in brief: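 Growth inhibition is scored on fresh weight. Spray solutions were made in acetone with tween-80, diluted in water, plus 1.5 L/ha methyl oleate emulsible concentrate. Plants from greenhouse-grown weed and crop seeds were treated post-emergence at 2-3 leaves, 2 weeks after sowing.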

Digitaria sanguinalis = experiment: Post-emergence test experiment, Digitaria sanguinalis; settings: 1000 g a.i./ha, 3 weeks in greenhouse, fresh weight inhibition
Method in brief: (§1)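 Greenhouse post-emergence spray at 2-3 leaf stage (2 wk after sowing); acetone/tween-80 formulation, methyl oleate EC synergist 1.5 L/ha, water-diluted. Plants held 3 wk, then fresh weight inhibition rate read.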

Echinochloa crusgalli = experiment: Post-emergence test experiment, Echinochloa crusgalli; settings: 1000 g a.i./ha, 3 weeks in greenhouse, fresh weight inhibition
Method in brief: as §1

SMILES: CCCCCCC(C)OC(=O)[C@@H](C)Oc1nc(F)c(Cl)c(N)c1Cl (some centres unmarked) [Compound 2-163]
- Activity level (growth inhibition rate), Abutilon theophrasti Medic. [1]: 5 (Level 5: the growth inhibition rate is greater than 85%)
- Activity level (growth inhibition rate), Galium aparine [1]: 5 (Level 5: the growth inhibition rate is greater than 85%)
- Activity level (growth inhibition rate), Monochoria Vaginalis [1]: 5 (Level 5: the growth inhibition rate is greater than 85%)
- Activity level (growth inhibition rate), Digitaria sanguinalis (Digitaria sanguinalis): 5 (Level 5: the growth inhibition rate is greater than 85%)
- Activity level (growth inhibition rate), Echinochloa crusgalli (Echinochloa crusgalli): 5 (Level 5: the growth inhibition rate is greater than 85%)

SMILES: CCNc1c(Cl)c(F)nc(O[C@H](C)C(=O)SC)c1Cl [Compound 2-376]
- Activity level (growth inhibition rate), Abutilon theophrasti Medic. [1]: 5 (Level 5: the growth inhibition rate is greater than 85%)
- Activity level (growth inhibition rate), Galium aparine [1]: 5 (Level 5: the growth inhibition rate is greater than 85%)
- Activity level (growth inhibition rate), Monochoria Vaginalis [1]: 5 (Level 5: the growth inhibition rate is greater than 85%)
- Activity level (growth inhibition rate), Digitaria sanguinalis (Digitaria sanguinalis): 5 (Level 5: the growth inhibition rate is greater than 85%)
- Activity level (growth inhibition rate), Echinochloa crusgalli (Echinochloa crusgalli): 5 (Level 5: the growth inhibition rate is greater than 85%)

SMILES: CC(Oc1nc(F)c(Cl)c(N)c1Cl)C(=O)O.N (centres unmarked) [Compound 2-3]
- Activity level (growth inhibition rate), Abutilon theophrasti Medic. [1]: 5 (Level 5: the growth inhibition rate is greater than 85%)
- Activity level (growth inhibition rate), Galium aparine [1]: 5 (Level 5: the growth inhibition rate is greater than 85%)
- Activity level (growth inhibition rate), Monochoria Vaginalis [1]: 5 (Level 5: the growth inhibition rate is greater than 85%)
- Activity level (growth inhibition rate), Digitaria sanguinalis (Digitaria sanguinalis): 5 (Level 5: the growth inhibition rate is greater than 85%)
- Activity level (growth inhibition rate), Echinochloa crusgalli (Echinochloa crusgalli): 5 (Level 5: the growth inhibition rate is greater than 85%)

SMILES: C[C@@H](Oc1nc(F)c(Cl)c(N)c1Cl)C(=O)OCc1cccnc1 [Compound 2-346]
- Activity level (growth inhibition rate), Abutilon theophrasti Medic. [1]: 5 (Level 5: the growth inhibition rate is greater than 85%)
- Activity level (growth inhibition rate), Galium aparine [1]: 5 (Level 5: the growth inhibition rate is greater than 85%)
- Activity level (growth inhibition rate), Monochoria Vaginalis [1]: 5 (Level 5: the growth inhibition rate is greater than 85%)
- Activity level (growth inhibition rate), Digitaria sanguinalis (Digitaria sanguinalis): 5 (Level 5: the growth inhibition rate is greater than 85%)
- Activity level (growth inhibition rate), Echinochloa crusgalli (Echinochloa crusgalli): 5 (Level 5: the growth inhibition rate is greater than 85%)

SMILES: CC(Oc1nc(F)c(Cl)c(N)c1Cl)C(=O)OCC(Cl)=C(Cl)Cl (centres unmarked) [Compound 2-286]
- Activity level (growth inhibition rate), Abutilon theophrasti Medic. [1]: 5 (Level 5: the growth inhibition rate is greater than 85%)
- Activity level (growth inhibition rate), Galium aparine [1]: 5 (Level 5: the growth inhibition rate is greater than 85%)
- Activity level (growth inhibition rate), Monochoria Vaginalis [1]: 5 (Level 5: the growth inhibition rate is greater than 85%)
- Activity level (growth inhibition rate), Digitaria sanguinalis (Digitaria sanguinalis): 5 (Level 5: the growth inhibition rate is greater than 85%)
- Activity level (growth inhibition rate), Echinochloa crusgalli (Echinochloa crusgalli): 5 (Level 5: the growth inhibition rate is greater than 85%)

SMILES: CC(Oc1nc(F)c(Cl)c(N)c1Cl)C(=O)SC1CCCCC1 (centres unmarked) [Compound 2-266]
- Activity level (growth inhibition rate), Abutilon theophrasti Medic. [1]: 5 (Level 5: the growth inhibition rate is greater than 85%)
- Activity level (growth inhibition rate), Galium aparine [1]: 5 (Level 5: the growth inhibition rate is greater than 85%)
- Activity level (growth inhibition rate), Monochoria Vaginalis [1]: 5 (Level 5: the growth inhibition rate is greater than 85%)
- Activity level (growth inhibition rate), Digitaria sanguinalis (Digitaria sanguinalis): 5 (Level 5: the growth inhibition rate is greater than 85%)
- Activity level (growth inhibition rate), Echinochloa crusgalli (Echinochloa crusgalli): 5 (Level 5: the growth inhibition rate is greater than 85%)

SMILES: C#CCOC(=O)C(C)Oc1nc(F)c(Cl)c(N)c1Cl (centres unmarked) [Compound 2-275]
- Activity level (growth inhibition rate), Abutilon theophrasti Medic. [1]: 5 (Level 5: the growth inhibition rate is greater than 85%)
- Activity level (growth inhibition rate), Galium aparine [1]: 5 (Level 5: the growth inhibition rate is greater than 85%)
- Activity level (growth inhibition rate), Monochoria Vaginalis [1]: 5 (Level 5: the growth inhibition rate is greater than 85%)
- Activity level (growth inhibition rate), Digitaria sanguinalis (Digitaria sanguinalis): 5 (Level 5: the growth inhibition rate is greater than 85%)
- Activity level (growth inhibition rate), Echinochloa crusgalli (Echinochloa crusgalli): 5 (Level 5: the growth inhibition rate is greater than 85%)

SMILES: COc1ccc(SC(=O)C(C)Oc2nc(F)c(Cl)c(N)c2Cl)cc1 (centres unmarked) [Compound 2-358]
- Activity level (growth inhibition rate), Abutilon theophrasti Medic. [1]: 5 (Level 5: the growth inhibition rate is greater than 85%)
- Activity level (growth inhibition rate), Galium aparine [1]: 5 (Level 5: the growth inhibition rate is greater than 85%)
- Activity level (growth inhibition rate), Monochoria Vaginalis [1]: 5 (Level 5: the growth inhibition rate is greater than 85%)
- Activity level (growth inhibition rate), Digitaria sanguinalis (Digitaria sanguinalis): 5 (Level 5: the growth inhibition rate is greater than 85%)
- Activity level (growth inhibition rate), Echinochloa crusgalli (Echinochloa crusgalli): 5 (Level 5: the growth inhibition rate is greater than 85%)

SMILES: C=CCOC(=O)C(C)(C)OC(=O)C(C)Oc1nc(F)c(Cl)c(N)c1Cl (centres unmarked) [Compound 2-288]
- Activity level (growth inhibition rate), Abutilon theophrasti Medic. [1]: 5 (Level 5: the growth inhibition rate is greater than 85%)
- Activity level (growth inhibition rate), Galium aparine [1]: 5 (Level 5: the growth inhibition rate is greater than 85%)
- Activity level (growth inhibition rate), Monochoria Vaginalis [1]: 5 (Level 5: the growth inhibition rate is greater than 85%)
- Activity level (growth inhibition rate), Digitaria sanguinalis (Digitaria sanguinalis): 5 (Level 5: the growth inhibition rate is greater than 85%)
- Activity level (growth inhibition rate), Echinochloa crusgalli (Echinochloa crusgalli): 5 (Level 5: the growth inhibition rate is greater than 85%)

SMILES: CC(Oc1nc(F)c(Cl)c(N)c1Cl)C(=O)OCCN (centres unmarked) [Compound 2-284]
- Activity level (growth inhibition rate), Abutilon theophrasti Medic. [1]: 5 (Level 5: the growth inhibition rate is greater than 85%)
- Activity level (growth inhibition rate), Galium aparine [1]: 5 (Level 5: the growth inhibition rate is greater than 85%)
- Activity level (growth inhibition rate), Monochoria Vaginalis [1]: 5 (Level 5: the growth inhibition rate is greater than 85%)
- Activity level (growth inhibition rate), Digitaria sanguinalis (Digitaria sanguinalis): 5 (Level 5: the growth inhibition rate is greater than 85%)
- Activity level (growth inhibition rate), Echinochloa crusgalli (Echinochloa crusgalli): 5 (Level 5: the growth inhibition rate is greater than 85%)

SMILES: CC(C)C(C)OC(=O)[C@@H](C)Oc1nc(F)c(Cl)c(N)c1Cl (some centres unmarked) [Compound 2-95]
- Activity level (growth inhibition rate), Abutilon theophrasti Medic. [1]: 5 (Level 5: the growth inhibition rate is greater than 85%)
- Activity level (growth inhibition rate), Galium aparine [1]: 5 (Level 5: the growth inhibition rate is greater than 85%)
- Activity level (growth inhibition rate), Monochoria Vaginalis [1]: 5 (Level 5: the growth inhibition rate is greater than 85%)
- Activity level (growth inhibition rate), Digitaria sanguinalis (Digitaria sanguinalis): 5 (Level 5: the growth inhibition rate is greater than 85%)
- Activity level (growth inhibition rate), Echinochloa crusgalli (Echinochloa crusgalli): 5 (Level 5: the growth inhibition rate is greater than 85%)

SMILES: CCC(C)OC(=O)[C@@H](C)Oc1nc(F)c(Cl)c(N)c1Cl (some centres unmarked) [Compound 2-81]
- Activity level (growth inhibition rate), Abutilon theophrasti Medic. [1]: 5 (Level 5: the growth inhibition rate is greater than 85%)
- Activity level (growth inhibition rate), Galium aparine [1]: 5 (Level 5: the growth inhibition rate is greater than 85%)
- Activity level (growth inhibition rate), Monochoria Vaginalis [1]: 5 (Level 5: the growth inhibition rate is greater than 85%)
- Activity level (growth inhibition rate), Digitaria sanguinalis (Digitaria sanguinalis): 5 (Level 5: the growth inhibition rate is greater than 85%)
- Activity level (growth inhibition rate), Echinochloa crusgalli (Echinochloa crusgalli): 5 (Level 5: the growth inhibition rate is greater than 85%)

SMILES: C[C@@H](Oc1nc(F)c(Cl)c(N)c1Cl)C(=O)SCc1ccc(C(F)(F)F)cc1 [Compound 2-332]
- Activity level (growth inhibition rate), Abutilon theophrasti Medic. [1]: 5 (Level 5: the growth inhibition rate is greater than 85%)
- Activity level (growth inhibition rate), Galium aparine [1]: 5 (Level 5: the growth inhibition rate is greater than 85%)
- Activity level (growth inhibition rate), Monochoria Vaginalis [1]: 5 (Level 5: the growth inhibition rate is greater than 85%)
- Activity level (growth inhibition rate), Digitaria sanguinalis (Digitaria sanguinalis): 5 (Level 5: the growth inhibition rate is greater than 85%)
- Activity level (growth inhibition rate), Echinochloa crusgalli (Echinochloa crusgalli): 5 (Level 5: the growth inhibition rate is greater than 85%)

SMILES: C[C@@H](Oc1nc(F)c(Cl)c(N)c1Cl)C(=O)OCc1cccc(C#N)c1 [Compound 2-335]
- Activity level (growth inhibition rate), Abutilon theophrasti Medic. [1]: 5 (Level 5: the growth inhibition rate is greater than 85%)
- Activity level (growth inhibition rate), Galium aparine [1]: 5 (Level 5: the growth inhibition rate is greater than 85%)
- Activity level (growth inhibition rate), Monochoria Vaginalis [1]: 5 (Level 5: the growth inhibition rate is greater than 85%)
- Activity level (growth inhibition rate), Digitaria sanguinalis (Digitaria sanguinalis): 5 (Level 5: the growth inhibition rate is greater than 85%)
- Activity level (growth inhibition rate), Echinochloa crusgalli (Echinochloa crusgalli): 5 (Level 5: the growth inhibition rate is greater than 85%)

SMILES: C[C@@H](Oc1nc(F)c(Cl)c(N)c1Cl)C(=O)OCc1ccnn1C [Compound 2-353]
- Activity level (growth inhibition rate), Abutilon theophrasti Medic. [1]: 5 (Level 5: the growth inhibition rate is greater than 85%)
- Activity level (growth inhibition rate), Galium aparine [1]: 5 (Level 5: the growth inhibition rate is greater than 85%)
- Activity level (growth inhibition rate), Monochoria Vaginalis [1]: 5 (Level 5: the growth inhibition rate is greater than 85%)
- Activity level (growth inhibition rate), Digitaria sanguinalis (Digitaria sanguinalis): 5 (Level 5: the growth inhibition rate is greater than 85%)
- Activity level (growth inhibition rate), Echinochloa crusgalli (Echinochloa crusgalli): 5 (Level 5: the growth inhibition rate is greater than 85%)

SMILES: CCCCC(CC)COC(=O)[C@@H](C)Oc1nc(F)c(Cl)c(N)c1Cl (some centres unmarked) [Compound 2-157]
- Activity level (growth inhibition rate), Abutilon theophrasti Medic. [1]: 5 (Level 5: the growth inhibition rate is greater than 85%)
- Activity level (growth inhibition rate), Galium aparine [1]: 5 (Level 5: the growth inhibition rate is greater than 85%)
- Activity level (growth inhibition rate), Monochoria Vaginalis [1]: 5 (Level 5: the growth inhibition rate is greater than 85%)
- Activity level (growth inhibition rate), Digitaria sanguinalis (Digitaria sanguinalis): 5 (Level 5: the growth inhibition rate is greater than 85%)
- Activity level (growth inhibition rate), Echinochloa crusgalli (Echinochloa crusgalli): 5 (Level 5: the growth inhibition rate is greater than 85%)
